Experimental findings from patent US20120277209A1, “PYRAZINE COMPOUNDS AS PHOSPHODIESTERASE 10 INHIBITORS” (Amgen Inc., priority 2009, published 2012) are described below.

Molecules are shown by their SMILES. pIC50: −log10 of the molar value. Where only a bound is given, the exact number is not on record here.

The term pIC50 denotes −log10 of the IC50, conventionally taken in molar units.

The first assay concerns the target PDE10 (UniProt Q9Y233). The assay can be described thus: PDE10 enzyme inhibition, IMAP TR-FRET assay (MPDE10A7 Enzyme Activity and Inhibition). Conditions: IC50 class against PDE10; read-out: IC50. The assay is classed as biochemical. The method, boiled down:
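IMAP TR-FRET read-out of PDE10 hydrolysis of fluorescein-cAMP or -cGMP (60 min, room temperature), after a 30 min compound-enzyme preincubation. Enzyme source was PDE10A or tissue homogenate. Averaged IC50s are reported as five range classes.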
Background: TR-FRET usually uses a lanthanide donor and a delayed reading to cut background.
For `c1ccc2sc(Nc3ccc(Oc4nccnc4C4CCOC4)cc3)nc2c1` (stereo not shown) [Example 221, N-(4-(3-(TETRAHYDROFURAN-3-YL)PYRAZIN-2-YLOXY)PHENYL)BENZO[D]THIAZOL-2-AMINE], the negative-log IC50 (pIC50) is greater than 7.60.
On the same count and under the same terms, the figure for `O=C(c1ccc(Oc2nccnc2C2CCCOCC2)cc1)c1nc2ccccc2[nH]1` (stereo not shown) [Example 198, (1H-benzo[d]imidazol-2-yl)(4-(3-(oxepan-4-yl)pyrazin-2-yloxy)phenyl)methanone] is greater than 7.60; for `CC(C)COc1nccnc1Oc1ccc(C(=O)c2nc3ccccc3[nH]2)cc1` [Example 162, (1H-benzo[d]imidazol-2-yl)(4-(3-isobutoxypyrazin-2-yloxy)phenyl)methanone] it is 5.30 to 6.00; for `Fc1ccc2sc(Nc3ccc(Oc4cnccn4)cc3)nc2c1` [Example 219, 5-fluoro-N-(4-(pyrazin-2-yloxy)phenyl)benzo[d]thiazol-2-amine] it is 5.30 to 6.00.
On the same count and under the same terms, the figure for `Fc1cc(Oc2cnccn2)ccc1Nc1nc2ccccc2s1` [Example 216, N-(2-fluoro-4-(pyrazin-2-yloxy)phenyl)benzo[d]thiazol-2-amine] is 5.30 to 6.00; for `O=C(c1ccc(Oc2nccnc2C2CCNCC2)cc1)c1nc2ccccc2[nH]1` [Example 230, (1H-benzo[d]imidazol-2-yl)(4-(3-(piperidin-4-yl)pyrazin-2-yloxy)phenyl)methanone] it is greater than 7.60; for `FC1(c2nccnc2Oc2ccc(Nc3nc4ccccc4s3)cc2)CCOCC1` [Example 204, N-(4-(3-(4-FLUOROTETRAHYDRO-2H-PYRAN-4-YL)PYRAZIN-2-YLOXY)PHENYL)BENZO[D]THIAZOL-2-AMINE] it is greater than 7.60.
Regarding `OCc1ccc(-c2nccnc2Oc2ccc(Nc3nc4ccccc4s3)cc2)cn1` [Example 146, (5-(3-(4-(benzo[d]thiazol-2-ylamino)phenoxy)pyrazin-2-yl)pyridin-2-yl)methanol], the pIC50 was 7.00 to 7.60.
For the compound `c1ccc2sc(Nc3ccc(Oc4nccnc4N4CCC4)cc3)nc2c1` [Example 77, N-(4-(3-(azetidin-1-yl)pyrazin-2-yloxy)phenyl)benzo[d]thiazol-2-amine], the pIC50 is 7.00 to 7.60.
For the compound `CC(=O)N1CCN(c2nccnc2Oc2ccc(Nc3nc4ccccc4s3)cc2)CC1` [Example 71, 1-(4-(3-(4-(benzo[d]thiazol-2-ylamino)phenoxy)pyrazin-2-yl)piperazin-1-yl)ethanone], the pIC50 is 7.00 to 7.60.
As to `COC(=O)c1ccc(-c2nccnc2Oc2ccc(C(=O)c3nc4ccccc4[nH]3)cc2)cc1` [Example 126, methyl 4-(3-(4-(1H-benzo[d]imidazole-2-carbonyl)phenoxy)pyrazin-2-yl)benzoate], the pIC50 was greater than 7.60.
In the case of `O=C(c1ccc(Oc2nccnc2C2CCCC2)cc1)c1nc2ccccc2[nH]1` [Example 220, (1H-benzo[d]imidazol-2-yl)(4-(3-cyclopentylpyrazin-2-yloxy)phenyl)methanone], the negative-log IC50 (pIC50) was 7.00 to 7.60.
Take `O=C(c1ccc(Oc2nccnc2OCc2ccccn2)cc1)c1nc2ccccc2[nH]1` [Example 166, (1H-benzo[d]imidazol-2-yl)(4-(3-(pyridin-2-ylmethoxy)pyrazin-2-yloxy)phenyl)methanone]: the pIC50 is 7.00 to 7.60.
As to `COCC1CCN(c2nccnc2Oc2ccc(Nc3nc4ccccc4s3)cc2)C1` (racemic) [Example 88, N-(4-(3-(3-(methoxymethyl)-pyrrolidin-1-yl)pyrazin-2-yl-oxy)phenyl)benzo[d]thiazol-2-amine], the pIC50 is greater than 7.60.
Consider `CN1CCC(c2nccnc2Oc2ccc(Nc3nc4ccccc4s3)cc2)CC1` [Example 237, N-(4-(3-(1-methylpiperidin-4-yl)pyrazin-2-yloxy)phenyl)benzo [d]thiazol-2-amine], for which the pIC50 is greater than 7.60.
For `CC(C)n1c(C(=O)c2ccc(Oc3nccnc3N3CCOCC3)cc2)nc2ccccc21` [Example 6, (1-ISOPROPYL-1H-BENZO[D]IMIDAZOL-2-YL)(4-(3-MORPHOLINOPYRAZIN-2-YLOXY)PHENYL)METHANONE], the pIC50 is 7.00 to 7.60.
As to `CN(c1ccc(Oc2nccnc2C2CCOCC2)cc1)c1nc2ccccc2s1` [Example 201, N-METHYL-N-(4-(3-(TETRAHYDRO-2H-PYRAN-4-YL)PYRAZIN-2-YLOXY)PHENYL)BENZO[D]THIAZOL-2-AMINE], the pIC50 is greater than 7.60.

Staying with this assay, now noted: PDE10 enzyme inhibition; average IC50 data for each compound; read-out: Average IC50.
Consider `c1ccc2sc(Nc3ccc(Oc4nccnc4[C@H]4CCOC4)cc3)nc2c1` (stereo in doubt), for which the negative logarithm of the IC50 (pIC50) was 8.69.
In the case of `CO[C@@H]1CC=C(c2nccnc2Oc2ccc(C(=O)c3nc4ccccc4[nH]3)cc2)CC1` (stereo in doubt), the pIC50 is 8.40.
`O=C(c1ccc(Oc2nccnc2N2CCC(C(=O)O)CC2)cc1)c1nc2ccccc2[nH]1`: the pIC50 was 8.93.
On to `O=C(c1ccc(Oc2nccnc2N2CCC(CO)CC2)cc1)c1nc2ccccc2[nH]1`, for which the negative logarithm of the IC50 (pIC50) was 9.49.
As to `OCCC1CCN(c2nccnc2Oc2ccc(Nc3nc4ccccc4s3)cc2)CC1` [drawing 735], the pIC50 is 8.02.
Turning to `COC(=O)[C@H]1CCN(c2nccnc2Oc2ccc(C(=O)c3nc4ccccc4[nH]3)cc2)C1` [drawing 837], the pIC50 was 8.38.
Still for that read-out and setting: under `c1ccc2sc(Nc3ccc(Oc4nccnc4-c4ccc(N5CCOCC5)nc4)cc3)nc2c1` [drawing 762] stands 7.11; under `O=C(c1ccc(Oc2nccnc2-c2ccnc3ccccc23)cc1)c1nc2ccccc2[nH]1` [drawing 799], 8.44.
Consider `O=C(c1ccc(Oc2nccnc2C2CCOCC2)cc1)c1nc2ccccc2[nH]1` [drawing 752], for which the negative-log IC50 (pIC50) was 9.31.
`[2H]C([2H])([2H])C(=O)N1CCC(c2nccnc2Oc2ccc(C(=O)c3nc4ccccc4[nH]3)cc2)CC1` [drawing 993]: the pIC50 is 9.98.
`C[C@H]1CN(c2nccnc2Oc2ccc(Nc3nc4ccccc4s3)cc2)CC(=O)N1` [drawing 835]: the negative logarithm of the IC50 (pIC50) was 7.77.
The same measure, in the same setting: under `O=C(c1ccc(Oc2nccnc2C2CCOCC2)cc1)c1nc2ccc(F)cc2[nH]1` [drawing 987] stands 9.23; under `O=C(c1ccc(Oc2nccnc2[C@H]2CC[C@@H](O)CC2)cc1)c1nc2ccccc2[nH]1` [drawing 900], 8.87.
Same read-out and setting: under `COC(=O)C1CN(c2nccnc2Oc2ccc(Nc3nc4ccccc4s3)cc2)C1` [drawing 722] stands 8.08.
Turning to `CC(C)N1CCN(c2nccnc2Oc2ccc(Nc3nc4ccccc4s3)cc2)CC1=O` [drawing 766], the pIC50 was 7.90.
With `CC(=O)N1CCC(c2nccnc2Oc2ccc(Nc3nc4ccccc4s3)nc2)CC1` [drawing 992], the pIC50 is 9.23.
On to `O=C(c1ccc(Oc2nccnc2OCc2cccnc2)cc1)c1nc2ccccc2[nH]1` [drawing 904], for which the pIC50 is 7.41.
For `CCOC(=O)[C@@H]1CCCN(c2nccnc2Oc2ccc(C(=O)c3nc4ccccc4[nH]3)cc2)C1` (stereo in doubt), the pIC50 is 9.11.
Take `O=C(c1ccc(Oc2nccnc2C(=O)O)cc1)c1nc2ccccc2[nH]1`: the pIC50 is 6.25.
Same read-out and setting: under `O=C(c1ccc(Oc2nccnc2N2CCC[C@H]2CO)cc1)c1nc2ccccc2[nH]1` stands 8.95.
